For the experiment, the target named is T1, human OX1 receptors (Homo sapiens, UniProt O43613).
T1 sequence (O43613 1-425): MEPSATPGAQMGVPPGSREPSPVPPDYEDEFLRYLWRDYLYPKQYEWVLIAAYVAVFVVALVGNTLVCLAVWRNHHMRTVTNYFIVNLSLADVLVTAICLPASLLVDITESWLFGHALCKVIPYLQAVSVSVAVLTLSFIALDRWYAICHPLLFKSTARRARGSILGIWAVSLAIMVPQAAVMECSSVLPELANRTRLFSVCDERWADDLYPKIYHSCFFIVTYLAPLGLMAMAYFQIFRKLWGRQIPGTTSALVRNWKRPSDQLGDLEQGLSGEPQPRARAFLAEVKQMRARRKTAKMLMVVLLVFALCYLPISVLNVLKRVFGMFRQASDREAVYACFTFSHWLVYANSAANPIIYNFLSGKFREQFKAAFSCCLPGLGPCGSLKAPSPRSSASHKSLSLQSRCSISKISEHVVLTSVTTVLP
Description: Calcium mobilization Ke. It is filed as cell-based. The conditions noted are these: for OX1 potency (in words): qualitative statement. Background: Calcium flux is commonly read through the fluorescence of an indicator in the cells.

The mark [1] stands for this setting: pre-incubation increased to 45 min and 60 min.
The mark [2] stands for this setting: simultaneous addition of antagonist and Orexin A.

As for `CCOc1ccc2c(c1)C(Cc1ccc(OC)c(OC)c1)N(CC(=O)NCc1ccccc1)CC2` (centres unmarked) [10b, N-Benzyl-2-{1-[(3,4-dimethoxyphenyl)methyl]-7-ethoxy-1,2,3,4-tetrahydroisoquinolin-2-yl}acetamide], the Kb worked out at 37.3 ± 7.8 nM.

On to `COc1ccc(CC2c3cc(OC(C)C)ccc3CCN2CC(=O)NCc2ccccc2)cc1OC` (centres unmarked) [10d, N-Benzyl-2-{1-[(3,4-dimethoxyphenyl)methyl]-7-(propan-2-yloxy)-1,2,3,4-tetrahydroisoquinolin-2-yl}acetamide], for which the Kb was found to be 49.7 ± 11 nM.

As for `CCCCOc1ccc2c(c1)C(Cc1ccc(OC)c(OC)c1)N(CC(=O)NCc1ccccc1)CC2` (centres unmarked) [10e, N-Benzyl-2-{7-butoxy-1-[(3,4-dimethoxyphenyl)methyl]-1,2,3,4-tetrahydroisoquinolin-2-yl}acetamide], the Kb is 230 ± 70 nM.

Take `CCCOc1ccc2c(c1)CCN(CC(=O)NCc1ccccc1)C2Cc1ccc(OC)c(OC)c1` (centres unmarked) [17a, N-Benzyl-2-{1-[(3,4-dimethoxyphenyl)methyl]-6-propoxy-1,2,3,4-tetrahydroisoquinolin-2-yl}acetamide]: the Kb was more than 10000 nM.

For `COc1ccc(CC2c3ccc(OCC(F)(F)F)cc3CCN2CC(=O)NCc2ccccc2)cc1OC` (centres unmarked) [17b, N-Benzyl-2-{1-[(3,4-dimethoxyphenyl)methyl]-6-(2,2,2-trifluoroethoxy)-1,2,3,4-tetrahydroisoquinolin-2-yl}acetamide], the Kb is more than 10000 nM.

Consider `COc1ccc(CC2c3ccc(OC(C)C)cc3CCN2CC(=O)NCc2ccccc2)cc1OC` (centres unmarked) [17c, N-Benzyl-2-{1-[(3,4-dimethoxyphenyl)methyl]-6-(propan-2-yloxy)-1,2,3,4-tetrahydroisoquinolin-2-yl}acetamide], for which the Kb is more than 10000 nM.

Take `COc1ccc(CC2c3ccc(OCc4ccccc4)cc3CCN2CC(=O)NCc2ccccc2)cc1OC` (centres unmarked) [17d, N-Benzyl-2-[6-(benzyloxy)-1-[(3,4-dimethoxyphenyl)methyl]-1,2,3,4-tetrahydroisoquinolin-2-yl]acetamide]: the Kb is more than 10000 nM.

In the case of `CCOC(=O)CCCOc1ccc2c(c1)CCN(CC(=O)NCc1ccccc1)C2Cc1ccc(OC)c(OC)c1` (centres unmarked) [17e, Ethyl 4-({2-[(benzylcarbamoyl)methyl]-1-[(3,4-dimethoxyphenyl)methyl]-1,2,3,4-tetrahydroisoquinolin-6-yl}oxy)butanoate], the Kb stood at 1000 ± 190 nM. For the same compound, the “mode of antagonism at OX1” value (15 minute pre-incubation) is listed as “insurmountable antagonism”. In addition, under setting [1], the “mode of antagonism at OX1” value was “competitive antagonists”. The “mode of antagonism at OX1” value under setting [2] was “competitive antagonists”.

Regarding `CCOC(=O)CCCCCCOc1ccc2c(c1)CCN(CC(=O)NCc1ccccc1)C2Cc1ccc(OC)c(OC)c1` (centres unmarked) [17f, Ethyl 7-({2-[(benzylcarbamoyl)methyl]-1-[(3,4-dimethoxyphenyl)methyl]-1,2,3,4-tetrahydroisoquinolin-6-yl}oxy)heptanoate], the Kb is more than 10000 nM.

In the case of `COc1ccc(CC2c3ccc(OS(=O)(=O)c4ccccc4)cc3CCN2CC(=O)NCc2ccccc2)cc1OC` (centres unmarked) [18b, 2-[(Benzylcarbamoyl)methyl]-1-[(3,4-dimethoxyphenyl)methyl]-1,2,3,4-tetrahydroisoquinolin-6-yl benzenesulfonate], the Kb is more than 10000 nM.

For `COc1ccc(CC2c3ccc(N(C)C)cc3CCN2CC(=O)NCc2ccccc2)cc1OC` (centres unmarked) [25a, N-Benzyl-2-{1-[(3,4-dimethoxyphenyl)methyl]-6-(dimethylamino)-1,2,3,4-tetrahydroisoquinolin-2-yl}acetamide], the Kb worked out at 1370 ± 100 nM.

As to `CCCNc1ccc2c(c1)CCN(CC(=O)NCc1ccccc1)C2Cc1ccc(OC)c(OC)c1` (centres unmarked) [25b, N-Benzyl-2-{1-[(3,4-dimethoxyphenyl)methyl]-6-(propylamino)-1,2,3,4-tetrahydroisoquinolin-2-yl}acetamide], the Kb was more than 10000 nM.

Regarding `CCCN(C)c1ccc2c(c1)CCN(CC(=O)NCc1ccccc1)C2Cc1ccc(OC)c(OC)c1` (centres unmarked) [25c, N-Benzyl-2-{1-[(3,4-dimethoxyphenyl)methyl]-6-[methyl(propyl)amino]-1,2,3,4-tetrahydroisoquinolin-2-yl}acetamide], the Kb was 619 ± 96 nM.

On to `CCCN(CCC)c1ccc2c(c1)CCN(CC(=O)NCc1ccccc1)C2Cc1ccc(OC)c(OC)c1` (centres unmarked) [25d, N-Benzyl-2-{1-[(3,4-dimethoxyphenyl)methyl]-6-(dipropylamino)-1,2,3,4-tetrahydroisoquinolin-2-yl}acetamide], for which the Kb was 2350 ± 490 nM.

`COc1ccc(CC2c3ccc(NC(C)C)cc3CCN2CC(=O)NCc2ccccc2)cc1OC` (centres unmarked) [25e, N-Benzyl-2-{1-[(3,4-dimethoxyphenyl)methyl]-6-[(propan-2-yl)amino]-1,2,3,4-tetrahydroisoquinolin-2-yl}acetamide]: the Kb was more than 10000 nM.

For the compound `COc1ccc(CC2c3ccc(NCC4CC4)cc3CCN2CC(=O)NCc2ccccc2)cc1OC` (centres unmarked) [25f, N-Benzyl-2-{6-[(cyclopropylmethyl)amino]-1-[(3,4-dimethoxyphenyl)methyl]-1,2,3,4-tetrahydroisoquinolin-2-yl}acetamide], the Kb was more than 10000 nM.

For `COc1ccc(CC2c3ccc(N(C)CC4CC4)cc3CCN2CC(=O)NCc2ccccc2)cc1OC` (centres unmarked) [25g, N-Benzyl-2-{6-[(cyclopropylmethyl)(methyl)amino]-1-[(3,4-dimethoxyphenyl)methyl]-1,2,3,4-tetrahydroisoquinolin-2-yl}acetamide], the Kb is 1400 ± 240 nM.

In the case of `COc1ccc(CC2c3ccc(NCc4ccccc4)cc3CCN2CC(=O)NCc2ccccc2)cc1OC` (centres unmarked) [25h, N-Benzyl-2-[6-(benzylamino)-1-[(3,4-dimethoxyphenyl)methyl]-1,2,3,4-tetrahydroisoquinolin-2-yl]acetamide], the Kb was determined as 1100 ± 290 nM.

Consider `COc1ccc(CC2c3ccc(N(C)Cc4ccccc4)cc3CCN2CC(=O)NCc2ccccc2)cc1OC` (centres unmarked) [25i, N-Benzyl-2-{6-[benzyl(methyl)amino]-1-[(3,4-dimethoxyphenyl)methyl]-1,2,3,4-tetrahydroisoquinolin-2-yl}acetamide], for which the Kb is more than 10000 nM.

Take `COc1ccc(CCNc2ccc3c(c2)CCN(CC(=O)NCc2ccccc2)C3Cc2ccc(OC)c(OC)c2)cc1OC` (centres unmarked) [25j, N-Benzyl-2-(6-{[2-(3,4-dimethoxyphenyl)ethyl]amino}-1-[(3,4-dimethoxyphenyl)methyl]-1,2,3,4-tetrahydroisoquinolin-2-yl)acetamide]: the Kb worked out at 2180 ± 360 nM. For the same compound, the “mode of antagonism at OX1” value (15 minute pre-incubation) is reported as “insurmountable antagonism”. Further, the “mode of antagonism at OX1” value under setting [1] is “competitive antagonists”. For the same compound, the “mode of antagonism at OX1” value under setting [2] is listed as “competitive antagonists”.

As to `COc1ccc(CC2c3ccc(NCCCc4ccccc4)cc3CCN2CC(=O)NCc2ccccc2)cc1OC` (centres unmarked) [25k, N-Benzyl-2-{1-[(3,4-dimethoxyphenyl)methyl]-6-[(3-phenylpropyl)amino]-1,2,3,4-tetrahydroisoquinolin-2-yl}acetamide], the Kb came out at 1180 ± 80 nM.

For `COc1ccc(CC2c3ccc(NCCCCOc4ccccc4)cc3CCN2CC(=O)NCc2ccccc2)cc1OC` (centres unmarked) [25l, N-Benzyl-2-{1-[(3,4-dimethoxyphenyl)methyl]-6-[(4-phenoxybutyl)amino]-1,2,3,4-tetrahydroisoquinolin-2-yl}acetamide], the Kb came out at 2080 ± 20 nM.

Turning to `COc1ccc(CC2c3ccc(NCc4ccncc4)cc3CCN2CC(=O)NCc2ccccc2)cc1OC` (centres unmarked) [25m, N-Benzyl-2-{1-[(3,4-dimethoxyphenyl)methyl]-6-[(pyridin-4-ylmethyl)amino]-1,2,3,4-tetrahydroisoquinolin-2-yl}acetamide], the Kb is more than 10000 nM.

For `COc1ccc(CC2c3ccc(NCc4cccnc4)cc3CCN2CC(=O)NCc2ccccc2)cc1OC` (centres unmarked) [25n, N-Benzyl-2-{1-[(3,4-dimethoxyphenyl)methyl]-6-[(pyridin-3-ylmethyl)amino]-1,2,3,4-tetrahydroisoquinolin-2-yl}acetamide], the Kb came out at 1270 ± 110 nM.

For the compound `COc1ccc(CC2c3ccc(NCCN4CCCCC4)cc3CCN2CC(=O)NCc2ccccc2)cc1OC` (centres unmarked) [25o, N-Benzyl-2-{1-[(3,4-dimethoxyphenyl)methyl]-6-{[2-(piperidin-1-yl)ethyl]amino}-1,2,3,4-tetrahydroisoquinolin-2-yl}acetamide], the Kb is more than 10000 nM and the “OX1 potency (in words)” value is given as “loss of detectable potency”.

In the case of `COc1ccc(CC2c3ccc(N4CCCC4)cc3CCN2CC(=O)NCc2ccccc2)cc1OC` (centres unmarked) [25p, N-Benzyl-2-{1-[(3,4-dimethoxyphenyl)methyl]-6-(pyrrolidin-1-yl)-1,2,3,4-tetrahydroisoquinolin-2-yl}acetamide], the Kb amounted to 2480 ± 6 nM and the “OX1 potency (in words)” value was “some potency”.

With `COc1ccc(CC2c3ccc(N4CCCCC4)cc3CCN2CC(=O)NCc2ccccc2)cc1OC` (centres unmarked) [25q, N-Benzyl-2-{1-[(3,4-dimethoxyphenyl)methyl]-6-(piperidin-1-yl)-1,2,3,4-tetrahydroisoquinolin-2-yl}acetamide], the Kb is more than 10000 nM and the “OX1 potency (in words)” value was “no detectable potency”.

For the compound `CCCCCNc1ccc2c(c1)CCN(CC(=O)NCc1ccccc1)C2Cc1ccc(OC)c(OC)c1` (centres unmarked) [25r, N-Benzyl-2-{1-[(3,4-dimethoxyphenyl)methyl]-6-(pentylamino)-1,2,3,4-tetrahydroisoquinolin-2-yl}acetamide], the Kb was more than 10000 nM.

Turning to `CCCCCN(C)c1ccc2c(c1)CCN(CC(=O)NCc1ccccc1)C2Cc1ccc(OC)c(OC)c1` (centres unmarked) [25s, N-Benzyl-2-{1-[(3,4-dimethoxyphenyl)methyl]-6-[methyl(pentyl)amino]-1,2,3,4-tetrahydroisoquinolin-2-yl}acetamide], the Kb is more than 10000 nM.
